In patent US6509328B1, “Glutamate receptor antagonists” (Hoffmann-La Roche Inc., priority 1999, dated 2003):

| SMILES | melting point |
| --- | --- |
| Cc1cc(-c2cccc(C3=Nc4ccc(-c5ccccc5F)cc4NC(=O)C3)c2)on1 [Example 127, 8-(2-Fluoro-phenyl)-4-[3-(3-methyl-isoxazol-5-yl)-phenyl]-1,3-dihydro-benzo-[b][1,4]diazepin-2-one] | 222 to 224 °C |
| N#Cc1cccc(C2=Nc3ccc(C#Cc4ccc(F)cc4F)cc3NC(=O)C2)c1 [Example 130, 3-[7-(2,4-Difluoro-phenylethynyl)-4-oxo-4,5-dihydro-3H-benzo [b][1,4]diazepin-2-yl]-benzonitrile] | 240 to 246 °C |
| N#Cc1cccc(C2=Nc3ccc(C#Cc4ccccc4F)cc3NC(=O)C2)c1 [Example 131, 3-[7-(2-Fluoro-phenylethynyl)-4-oxo-4,5-dihydro-3H-benzo[b][1,4]diazepin-2-yl]-benzonitrile] | 213 to 214 °C |
| C#Cc1cccc(C2=Nc3ccc(C#Cc4ccccc4)cc3NC(=O)C2)c1 [Example 133, 4-(3-Ethynyl-phenyl)-8-phenylethynyl-1,3-dihydro-benzo[b][1,4]diazepin-2-one] | > 250 °C (dec.) |
| CC(C)(C)OC(=O)N1CC=C(C#Cc2ccc3c(c2)NC(=O)CC(c2cccc(C#N)c2)=N3)CC1 [Example 139, 4-[2-(3-Cyano-phenyl)-4-oxo-4,5-dihydro-3H-benzo [b][1,4]diazepin-7-ylethynyl]-3,6-dihydro-2H-pyridine-1-carboxylic acid tert.-butyl ester] | 239 °C |
| N#Cc1cccc(C2=Nc3ccc(C#CC4=CC(=O)CCC4)cc3NC(=O)C2)c1 [Example 144, 3-[4-Oxo-7-(3-oxo-cyclohex-1-enylethynyl)-4,5-dihydro-3H-benzo [b][1,4]diazepin-2-yl]-benzonitrile] | 110 °C |
| N#Cc1cccc(C2=Nc3ccc(C#Cc4ccc(F)cc4)cc3NC(=O)C2)c1 [Example 145, 3-[7-(4-Fluoro-phenylethynyl)-4-oxo-4,5-dihydro-3H-benzo [b][1,4]diazepin-2-yl]-benzonitrile] | 245 to 246 °C |
| CN1CCN(C(=O)c2cccc(C3=Nc4ccc(C#Cc5ccccc5)cc4NC(=O)C3)c2)CC1 [Example 147, 4-[3-(4-Methyl-piperazine-1-carbonyl)-phenyl]-8-phenylethynyl-1,3-dihydro-benzo[b][1,4]diazepin-2-one] | 168 to 172 °C (dec.) |

Further lines, results first:

| melting point | SMILES |
| --- | --- |
| 238 °C | N#Cc1cccc(C2=Nc3ccc(C#CC4=CCOCC4)cc3NC(=O)C2)c1 [Example 138, 3-[7-(3,6-Dihydro-2H-pyran-4-ylethynyl)-4-oxo-4,5-dihydro-3H-benzo [b][1,4]diazepin-2-yl]-benzonitrile] |
| 184 °C | N#Cc1cccc(C2=Nc3ccc(C#CC4=CCNCC4)cc3NC(=O)C2)c1 [Example 140, 3-[4-Oxo-7-(1,2,3,6-tetrahydro-pyridin-4-ylethynyl)-4,5-dihydro-3H-benzo [b][1,4]diazepin-2-yl]-benzonitrile] |
| 203 °C | CC(=O)N1CC=C(C#Cc2ccc3c(c2)NC(=O)CC(c2cccc(C#N)c2)=N3)CC1 [Example 141, 3-[7-(1-Acetyl-1,2,3,6-tetrahydro-pyridin-4-ylethynyl)-4-oxo-4,5-dihydro-3H-benzo[b][1,4]diazepin-2-yl]-benzonitrile] |
| 235 °C | CS(=O)(=O)N1CC=C(C#Cc2ccc3c(c2)NC(=O)CC(c2cccc(C#N)c2)=N3)CC1 [Example 142, 3-[7-(1-Methanesulfonyl-1,2,3,6-tetrahydro-pyridin-4-ylethynyl)-4-oxo-4,5-dihydro-3H-benzo[b][1,4]diazepin-2-yl]-benzonitrile] |
| 219 °C | CC(C)(C)C(=O)N1CC=C(C#Cc2ccc3c(c2)NC(=O)CC(c2cccc(C#N)c2)=N3)CC1 [Example 143, 3-{7-[1-(2,2-Dimethyl-propionyl)-1,2,3,6-tetrahydro-pyridin-4-ylethynyl]-4-oxo-4,5-dihydro-3H-benzo [b][1,4]diazepin-2-yl}-benzonitrile] |
